Results: patent US7378495B2, “PTH-rP related peptide cancer therapeutics” (Pevion Biotech, Ltd., priority 2002, dated 2008)
Marks after values point to notes of the source that are not given here. Bridges are numbered along the chain shown (N, C = ends). Where no end group is shown, it is not given here.

Columns and labels:
[1] = target: HLA-A(*)02.01 molecules (Homo sapiens, UniProt P04439, D140Y/D185E/D98H/E176V/E277Q/G131W/G231S/I119V/I121R/I166T/I218V/L300P/L318F/N151K/N90K/P208A/P217A/Q86G/Q94H/R138H/R169H/T345S); assay: T2-A2 HLA up-regulation test (HLA-A2.1 class I up-regulation, peptide binding); details: positive cut-off 287.116
Experimental: T2-A2, HLA up-regulation test: binding of the PTR-2 and PTR-4 peptides to HLA-A(*)02.01 molecules was evaluated by means of flow cytometry using T2 cells and the method described by Nijman et al. In this assay, increased stability (the accumulation of HLA-A(*)02.01 molecules on the surface of T2 cells as a consequence of peptide binding) is measured in terms of the increased binding of the antibody directed against HLA-A(*)02.01. Briefly, 10^6 T2 cells in serum-free IMDM were incubated overnight with escalating concentrations (0, 5, 25 and 50 μg/ml) of the PTR peptides in 24-well culture plates at 37° C. in an atmosphere containing 5% CO2. The cells were then washed two times with DPBS, and subsequently incubated for one hour with an anti-HLA-A(*)02.01 (A2.69) specific monoclonal antibody (A2.69, #189HA-1; One Lambda, Inc., Canoga Park, Calif.), using 10 μl of the recommended dilution per 10^6 cells. UPC-10 (Cappel/Organon Teknika Corp) was used as an isotype control. The cells were again washed two times with DPBS, incubated with 100 μl of a 1:100 dilution of fluorescein isothiocyanate (FITC)-labeled anti-mouse IgG (Becton Dickinson Corp.), and analyzed by means of FACScan and single-color analysis. The cells were kept at 4° C. during all of the manipulations unless otherwise stated.
Peptide selection and HLA-A(*)02.01 binding: In order to test the immunogenicity of PTH-rP protein and test possible tolerance of human T cell repertoire specific for it, the PTH-rP molecules were screened with the “Parker” algorithm (BIMAS) in order to predict peptides having high theoretical HLA-A(*)02.01 binding motifs. The functional binding of the two peptides to HLA-A(*)02.01 molecules was tested in vitro by means of the T2 test. PTH-rP peptides with similar or overlapping amino acid homology to the analogue sequences of parathyroid hormone (PTH) were cut out of the screening. The peptide sequences included in the first 36 amino acids (pro-peptide) were ignored although theoretically predicted with higher affinity for the HLA-A(*)02.01 molecule. […]

[2] = 0.1 mg sc. in the dorsal neck, after 6 hours, three mice

Substance	T2 binding ([1]; peptide 5 μg/ml)	T2 binding ([1]; peptide 25 μg/ml)	T2 binding ([1]; peptide 50 μg/ml)	Serum Ca (hypocalcemia induced by positive control) [2] [mmol/L]
YLSGANLNL [CAP-1]	240^d relative fluorescence values	352^e relative fluorescence values	502.9^f relative fluorescence values	
Human synthetic thyreocalcitonin: Sigma-Aldrich # T3535, positive control capable to induce hypocalcemia (CGNLSTCMLGTYTQDFNKFHTFPQTAIGVGAP-NH2; disulfide 1-7; ends not checked; UniProt P01258 85-116, looked up)				0.64 ± 0.645
